{"source": "ChEMBL document CHEMBL5126660", "about": "“Sesquiterpenoids from Seriphidium transiliense and Their Melanogenic Activity” (2022)", "key": {"[1]": {"test_system": "B16", "test": "Induction of melanogenesis in mouse B16 cells assessed as increase in intracellular melanin content at 50 uM incubated for 49 hrs by NaOH lysis based microplate reader assay", "format": "functional"}, "[2]": {"test_system": "HaCaT", "test": "Inhibition of JAK/STAT signaling pathway in human HaCaT cells assessed as downregulation of IFN-gamma induced CXCL10 protein level at 1 to 50 uM incubated for 24 hrs by ELISA", "format": "cell-based", "details": "dose 1-50 µM, DDE = dose-dependent effect"}, "[3]": {"test_system": "B16", "test": "Induction of melanogenesis in mouse B16 cells assessed as upregulation of TRP-2 mRNA expression at 50 uM by RT-PCR analysis", "format": "functional, cell-based"}, "[4]": {"test_system": "B16", "test": "Induction of melanogenesis in mouse B16 cells assessed as upregulation of MITF mRNA expression at 50 uM by RT-PCR analysis", "format": "functional, cell-based"}, "[5]": {"test_system": "HaCaT", "test": "Inhibition of JAK/STAT signaling pathway in human HaCaT cells assessed as downregulation of IFN-gamma induced JAK1 protein expression at 1 to 50 uM incubated for 48 hrs by Western blot analysis", "format": "cell-based", "details": "dose 1-50 µM"}, "[6]": {"test_system": "B16", "test": "Induction of melanogenesis in mouse B16 cells assessed as upregulation of TYR protein expression at 50 uM incubated for 48 hrs by Western blot analysis", "format": "functional, cell-based"}, "[7]": {"test_system": "B16", "test": "Induction of melanogenesis in mouse B16 cells assessed as increase in intracellular melanin content at 1 to 50 uM incubated for 49 hrs by NaOH lysis based microplate reader assay", "format": "functional, cell-based", "details": "dose 1-50 µM, DDE = dose-dependent effect"}, "[8]": {"test_system": "B16", "test": "Induction of melanogenesis in mouse B16 cells assessed as increase in intracellular tyrosinase activity at 50 uM incubated for 48 hrs by L-DOPA oxidation method", "format": "functional, cell-based"}, "[9]": {"test_system": "B16", "test": "Induction of melanogenesis in mouse B16 cells assessed as upregulation of TRP-2 protein expression at 50 uM incubated for 48 hrs by Western blot analysis", "format": "functional, cell-based"}, "[10]": {"test_system": "B16", "test": "Induction of melanogenesis in mouse B16 cells assessed as upregulation of TRP-1 protein expression at 50 uM incubated for 48 hrs by Western blot analysis", "format": "functional, cell-based"}, "[11]": {"test_system": "HaCaT", "test": "Inhibition of JAK/STAT signaling pathway in human HaCaT cells assessed as downregulation of IFN-gamma induced JAK2 protein expression at 50 uM incubated for 48 hrs by Western blot analysis", "format": "cell-based"}, "[12]": {"test_system": "B16", "test": "Induction of melanogenesis in mouse B16 cells assessed as upregulation of TYR mRNA expression at 50 uM by RT-PCR analysis", "format": "functional, cell-based"}, "[13]": {"test_system": "HaCaT", "test": "Inhibition of JAK/STAT signaling pathway in human HaCaT cells assessed as downregulation of IFN-gamma induced CXCL10 mRNA expression at 1 to 50 uM by RT-PCR analysis", "format": "cell-based", "details": "dose 1-50 µM, DDE = dose-dependent effect"}, "[14]": {"test_system": "B16", "test": "Induction of melanogenesis in mouse B16 cells assessed as upregulation of MITF protein expression at 50 uM incubated for 48 hrs by Western blot analysis", "format": "functional, cell-based"}, "[15]": {"test_system": "B16", "test": "Induction of melanogenesis in mouse B16 cells assessed as upregulation of TRP-1 mRNA expression at 50 uM by RT-PCR analysis", "format": "functional, cell-based"}, "[16]": {"test_system": "HaCaT", "test": "Inhibition of JAK/STAT signaling pathway in human HaCaT cells assessed as downregulation of IFN-gamma induced p-STAT protein expression at 10 to 50 uM incubated for 48 hrs by Western blot analysis", "format": "cell-based", "details": "dose 10-50 µM"}}, "note": "The source made the active and inactive calls. The calls are words filed in the database; no cut-off is given here."}
{"smiles": "C=C1CC[C@@H](O)[C@]2(C)CC[C@@H]([C@@H](C)C(=O)OC)[C@H](O)[C@@]12O", "values": [{"measurement": "Activity", "setting": "[1]", "value": "Active"}]}
{"smiles": "COc1c2occc2cc2ccc(=O)oc12", "note": "[METHOXSALEN]", "values": [{"measurement": "Activity", "setting": "[1]", "value": 138, "unit": "%"}]}
{"smiles": "C=C1CC[C@H](O)[C@]2(C)CC[C@H]3[C@@H](C)C(=O)O[C@@H]3[C@@]12O", "values": [{"measurement": "Activity", "setting": "[1]", "value": "Active"}]}
{"smiles": "C=C1CC[C@@H](O)[C@]2(C)CC[C@@H]([C@@H](C)C(=O)OC)[C@H](O)[C@]12O", "values": [{"measurement": "inhibition", "setting": "[2]", "value": "Dde"}, {"measurement": "Activity", "setting": "[3]", "value": "Active"}, {"measurement": "Activity", "setting": "[1]", "value": 153, "unit": "%"}, {"measurement": "Activity", "setting": "[4]", "value": "Active"}, {"measurement": "inhibition", "setting": "[5]", "value": "Active"}, {"measurement": "Activity", "setting": "[6]", "value": "Active"}, {"measurement": "Activity", "setting": "[7]", "value": "Dde"}, {"measurement": "Activity", "setting": "[8]", "value": "Active"}, {"measurement": "Activity", "setting": "[9]", "value": "Active"}, {"measurement": "Activity", "setting": "[10]", "value": "Active"}, {"measurement": "inhibition", "setting": "[11]", "value": "Active"}, {"measurement": "Activity", "setting": "[12]", "value": "Active"}, {"measurement": "inhibition", "setting": "[13]", "value": "Dde"}, {"measurement": "Activity", "setting": "[14]", "value": "Active"}, {"measurement": "Activity", "setting": "[15]", "value": "Active"}, {"measurement": "inhibition", "setting": "[16]", "value": "Active"}]}
{"smiles": "C=C1CC[C@@H](O)[C@]2(C)C[C@H](OC(C)=O)[C@H]3[C@H](C)C(=O)O[C@@H]3[C@@]12O", "values": [{"measurement": "Activity", "setting": "[1]", "value": "Active"}]}
